{"source": "patent US12569482B2", "about": "“Methods and compositions for treating idiopathic pulmonary fibrosis” (priority 2018, dated 2026)", "key": {"[1]": {"system": "bleomycin-induced lung fibrosis", "test": "Bleomycin induced IPF mouse model, Example 1 (oral nintedanib or fluconazole)", "format": "in vivo, C57BL/6 mice", "settings": "nintedanib 60 mg/kg", "method": "Forty male C57BL/6 mice (Nanjing Biomedical Research Institute of Nanjing University) were randomly divided into two groups on Day 1, 10 animals for one group (referred to as Control group or Group 1) and 30 for the other. The animals in the Control group were administered intratracheally with PBS at a dose of 2 mL/kg while the others were administered intratracheally with bleomycin (Cat #HY-17565, MCE) at a dose of 0.66 mg/kg.\n(§1) On Day 5, the mice with bleomycin treatment were divided into three groups at random (referred to as Group 2-4, n=10), and orally administered with vehicle (0.5% Methyl cellulose), nintedanib (Kangmanlin Co. Ltd., prepared in 0.5% Methyl cellulose with a final concentration of 6.0 mg/mL) and fluconazole (Kangmanlin Co. Ltd., prepared in 0.5% Methyl cellulose with a final concentration of 7.0 mg/mL) at daily doses of 10 mL/kg, 60 mg/kg and 70 mg/kg, respectively. The mice in the Control group was administered with vehicle (0.5% Methyl cellulose) at a daily dose of 10 mL/kg. Mice body weights were measured and recorded on Day 1, 5, 12, 19 and 25.\n(§2) Two hours post drug administration on Day 25, all animals were anaesthetized with pentobarbital (i.p., 65 mg/kg). Blood samples were collected from orbital vein, put in tubes pre-coated with EDTA-K2 (KANG JIAN, Cat #KJ202), centrifuged at 4000×g for 10 minutes at 4° C. and then stored at −80° C. for determination of plasma drug levels. Then, the trachea was exposed, and bronchoalveolar lavage fluid (BALF) was collected from each mouse by injecting 0.3 mL of saline into trachea close to the larynx for three times. After BALF collection, mice were perfused with saline, and all four lung lobes were collected from each mouse, fixed in 10% NBF solution, embedded in paraffin and cut into 5 μm-thick sections. The sections were de-paraffinized with xylene and ethanol and subject to Haematoxylin-Eosin, Masson Trichrome and α-SMA IHC staining.\nThe bronchoalveolar lavage fluid of 20 μL was mixed with 20 μL of trypan blue to determine the cell number. Then, the cells in the BALF were concentrated using a Cytospinat at 1,000 rpm for 5 minutes, smeared on slides and then stained with Diff-Quik stain. Cell types (alveolar macrophages, neutrophils, or lymphocytes) were determined by counting at least 200 cells using a standard hemocytometer. The rest BALFs were centrifuged and supernatants were collected and stored at −80° C. for soluble collagen analysis.\nThe Haematoxylin-Eosin staining was used to identify and quantitate the inflammatory cells in the tissues, and the total inflammation area was calculated using the AperioScanScope software.\nThe sections with Masson Trichrome staining were scored for pulmonary fibrosis according to the modified Ashcroft fibrosis rating criteria in Table 1 below. Each lung lobe was divided into 4 parts according to the distance from the main bronchus, i.e., the upper, upper middle, lower middle and lower parts, which were scored separately and averaged later.\nα-SMA is a well characterized marker in fibrosis. Immunohistochemistry staining of α-SMA is often used to characterize and quantitate the tissue fibrosis. Increased staining of α-SMA often reflects accumulation of collagen-producing myofibroblasts. Before α-SMA IHC staining, the de-paraffinized sections were treated with citrate antigen retrieval solution (0.01 N citrate buffer, pH 6.0) at 100° C. for 10 minutes, and then incubated with rabbit polyclonal anti-α-SMA (1:400, ab5694, Abcam) for 1 hour followed by goat anti-rabbit HRP (K4003, Dako). DAB substrate kit (DAB0031, Maixin, Shanghai) was used for chromogenic staining. All sections were further counter-stained with hematoxylin. […] α-SMA staining areas were calculated using the AperioImageScope program.\nStatistical analysis was performed using student's T-test, one-way or two-way ANOVA followed by post-hoc Dunnett's test if significant. […] The difference was considered significant when p<0.05. *p<0.05, **p<0.01, ***[…]."}, "[2]": {"design": "species or system C57BL/6 mice", "settings": "C57BL/6, mouse, in vivo, 2 h", "method": "as §1\nas §2, with “The sections were de-paraffinized with xylene and ethanol and subject to Haematoxylin-Eosin, Masson Trichrome and α-SMA IHC staining.” left out"}, "[3]": {"test": "Plasma drug levels, Example 2", "format": "in vivo, C57BL/6 mice", "settings": "C57BL/6, mouse", "method": "On Day 5, the mice with bleomycin treatment were divided into four groups at random (referred to as Group 2-5, n=10), and orally administered with vehicle (DMSO: PEG400=1:9, V/V), itraconazole (Kangmanlin Co. Ltd. prepared in DMSO/PEG400 with a final concentration of 1.5 mg/mL), nintedanib (Kangmanlin Co. Ltd., prepared in DMSO/PEG400 with a final concentration of 6.0 mg/mL), and itraconazole+nintedanib (prepared in DMSO/PEG400 with final concentrations of 1.5 mg/mL and 6.0 mg/mL) at daily doses of 10 mL/kg, 15 mg/kg, 60 mg/kg and 15+60 mg/kg, respectively. The mice in the Control group was administered with vehicle (DMSO/PEG400) at a daily dose of 10 mL/kg. Mice body weights were measured and recorded on Day 1, 5, 12, 19 and 21.\nTwo hours post drug administration on Day 21, all animals were anaesthetized with pentobarbital (i.p., 60 mg/kg). Blood sample, bronchoalveolar lavage fluid (BALF) and lung lobes were collected from each mouse and then processed following the protocols in Example 1."}, "[4]": {"test": "Drug concentrations in plasma and lung tissues after 5 days of oral or inhalation dosing", "format": "in vivo, healthy male mice", "settings": "male, mouse; for Kp at 2 h: lung tissue and plasma, read-out: levels in lung tissues relative to plasma; for concentration at 2 h: q.d., 5 days, two hours after last dose", "method": "In a separate experiment, three groups of healthy male mice were treated with itraconazole for 5 consecutive days. Animals in Group A were orally administered with itraconazole in DMSO:PEG400 (1:9, v/v) at a daily dose of 15 mg/kg, while mice in Group B and C were subject to 3-min inhalation treatment of itraconazole of 15 mg/mL and 50 mg/mL, respectively. Two hours after the last dose, plasma samples and lung tissues were collected as described above. These samples were sent to an independent bioanalytical service lab to determine the levels of itraconazole, and results were summarized in Table 3."}, "[5]": {"test": "Plasma exposure levels in the bleomycin-induced lung fibrosis mouse study", "format": "in vivo", "from_the_text": "Because the relevancy to human efficacy in bleomycin-induced lung fibrosis mouse model, though well established in preclinical studies (Moeller, 2008), has not been established, a new version of the bleomycin-induced lung fibrosis mouse study protocol was designed, with marketed anti-fibrotic drugs, namely pirfenidone and nintedanib, as positive controls."}, "[6]": {"settings": "cited from earlier work"}, "[7]": {"settings": "cited from earlier work", "remark": "listed apart in the source"}, "[8]": {"settings": "mice, cited from earlier work"}, "[9]": {"system": "sol elastase activity of CF sputum", "settings": "unprocessed CF sputum directly treated; cited from earlier work"}}, "note": "Entries after “also recorded” stand apart in the source; their conditions may differ. Like-named read-outs stand apart in the source and are kept apart here.", "data": [{"molecule": "OC(Cn1cncn1)(Cn1cncn1)c1ccc(F)cc1F", "note": "[fluconazole]", "values": [{"measurement": "reduction of lung inflammation area", "setting": "[1]; Haematoxylin-Eosin staining, fluconazole 70 mg/kg p.o. daily", "value": "not observed"}, {"measurement": "reduction of modified Ashcroft score", "setting": "[1]; Masson Trichrome staining, fluconazole 70 mg/kg p.o. daily", "value": "not observed"}, {"measurement": "anti-IPF activities / fibrosis related endpoint measurements (overall)", "setting": "[1]; fluconazole 70 mg/kg daily dose", "value": "did not show detectable changes; also recorded: failed to show any significant anti-IPF activities"}, {"measurement": "BALF collagen levels", "setting": "[1]; oral daily Day 5-25, fluconazole 70 mg/kg, vs bleomycin + vehicle", "value": "No collagen level reduction"}, {"measurement": "reduction of α-SMA staining area", "setting": "[1]; α-SMA IHC, fluconazole 70 mg/kg p.o. daily", "value": "not observed"}, {"measurement": "plasma level relative to that of itraconazole at 15 mg/kg", "setting": "[2]", "value": "over 62 fold"}]}, {"molecule": "CCC(C)n1ncn(-c2ccc(N3CCN(c4ccc(OCC5COC(Cn6cncn6)(c6ccc(Cl)cc6Cl)O5)cc4)CC3)cc2)c1=O", "note": "(centres unmarked) [itraconazole]", "values": [{"measurement": "concentration at 2 h", "setting": "[3]; oral, Day 21, itraconazole 15 mg/kg, nintedanib 60 mg/kg p.o. daily, read-out: two-hour post dosing plasma level, single agent", "value": 0.7, "unit": "µg/mL"}, {"measurement": "concentration at 2 h", "setting": "[3]; po, Day 21, 15+60 mg/kg p.o. daily, read-out: two-hour post dosing plasma drug level, itraconazole and nintedanib combined in administration", "value": 0.518, "unit": "µg/mL"}, {"measurement": "Kp at 2 h", "setting": "[4]; inhaled, 5 days of inhalation at 15 mg/mL for 3 min", "value": "~7.3"}, {"measurement": "Kp at 2 h", "setting": "[4]; inhaled, inhalation dose of 50 mg/mL for 3 min", "value": 8.3}, {"measurement": "Kp at 2 h", "setting": "[4]; 5 days of oral dosing at 15 mg/kg", "value": "~1.3"}, {"measurement": "concentration at 2 h", "setting": "[4]; lung tissue, inhaled, Group B: i.h., 15 mg/mL for 3 min, read-out: Lung Tissue Concentrations", "value": 0.59, "unit": "µg/mL"}, {"measurement": "concentration at 2 h", "setting": "[4]; lung tissue, inhaled, Group C: i.h., 50 mg/mL for 3 min, read-out: Lung Tissue Concentrations", "value": 1.4, "unit": "µg/mL"}, {"measurement": "concentration at 2 h", "setting": "[4]; lung tissue, po, Group A: p.o., 15 mg/kg, read-out: Lung Tissue Concentrations", "value": 0.172, "unit": "µg/mL"}, {"measurement": "concentration at 2 h", "setting": "[4]; plasma, inhaled, Group B: i.h., 15 mg/mL for 3 min, read-out: Plasma Concentrations", "value": 0.0809, "unit": "µg/mL"}, {"measurement": "concentration at 2 h", "setting": "[4]; plasma, inhaled, Group C: i.h., 50 mg/mL for 3 min, read-out: Plasma Concentrations", "value": 0.168, "unit": "µg/mL"}, {"measurement": "concentration at 2 h", "setting": "[4]; plasma, po, Group A: p.o., 15 mg/kg, read-out: Plasma Concentrations", "value": 0.133, "unit": "µg/mL"}, {"measurement": "plasma exposure level", "setting": "[5]; itraconazole alone at 7.5 mg/kg", "value": "394 ± 66", "unit": "ng/mL"}, {"measurement": "plasma exposure level", "setting": "[5]; itraconazole alone at 15 mg/kg", "value": "899 ± 192", "unit": "ng/mL"}, {"measurement": "solubility", "setting": "[6]; in 0.1N HCl", "value": "4 to 6", "unit": "µg/mL"}, {"measurement": "solubility", "setting": "[6]; in water", "value": "0.001 to 0.004", "unit": "µg/mL"}, {"measurement": "Cmax at steady state", "setting": "[7]; 200 mg (PO/BID)", "value": 2, "unit": "µg/mL"}, {"measurement": "Cmax at steady state", "setting": "[7]; 200 mg (PO/QD)", "value": 1.1, "unit": "µg/mL"}, {"measurement": "time to steady state plasma levels", "setting": "[7]; post oral administration, multiple dosing", "value": "around 15 days"}, {"measurement": "time at which peak plasma levels are reached", "setting": "[7]; post oral dose", "value": "2 to 5", "unit": "h"}, {"measurement": "serum levels relative to pulmonary concentrations", "setting": "[8]; aerosolized dose", "value": "25 to 50", "unit": "times lower"}, {"measurement": "time to effective anti-fungal pulmonary concentrations", "setting": "[8]; after completion of nebulization", "value": "≤ 60", "unit": "min"}]}, {"molecule": "DNase", "values": [{"measurement": "increase of sol elastase activity", "setting": "[9]", "value": 190, "unit": "%"}]}, {"molecule": "reduced rhTrx: stable reduced form of recombinant human thioredoxin (protein, UniProt P10599 2-105, looked up, reduced form) Thioredoxin: VKQIESKTAFQEALDAAGDKLVVVDFSATWCGPCKMIKPFFHSLSEKYSNVIFLEVDVDDCQDVASECEVKCMPTFQFFKKGQKVGEFSGANKEKLEATINELV", "values": [{"measurement": "increase of sol elastase activity", "setting": "[9]", "value": 60, "unit": "%"}]}]}
